Laboratory results: PMC3763632, “Radiosynthesis and Radiotracer Properties of a 7-(2-[^18F]Fluoroethoxy)-6-methoxypyrrolidinylquinazoline for Imaging of Phosphodiesterase 10A with PET” (Pharmaceuticals, 2012)
Entries after “also recorded” stand apart in the source; their conditions may differ.

Key:
[1] = tested on: PDE10A; assay: Ex vivo autoradiography of mouse brain; assay type: in vivo, CD-1 mice; settings: 30 min p.i. of 100 MBq
Method: To determine the regional distribution of [^18F]IV in the brain in vivo, we also performed ex vivo autoradiography. In CD-1 mice brain, heterogeneous distribution of radioactivity was noticed at 30 min after [^18F]IV injection (Figure 5), but the localization of radioligand did neither correlate with the spatial distribution of PDE10A in the brain known from immunohistochemical and in vivo PET studies nor with the pattern of [^18F]IV binding in the brain in vitro (Figure 3A). […] The discrepancy in the pattern of [^18F]IV distribution between in vitro and ex vivo autoradiography most probably indicates off-target binding of the radiotracer in combination with to low target affinity. While the dissociation rate underlying low affinity towards PDE10A allows a detection in the closed system of an in vitro study, the dynamic processes in vivo make binding of [^18F]IV towards PDE10A non-detectable. […]
Ex vivo autoradiography on the distribution of [^18F]IV in mouse brain (n = 1) was performed on sagittal brain sections obtained at 30 min after i.v. injection of 100 MBq of [^18F]IV. […] After exposition to ^18F-sensitive storage phosphor screens for 60 min, image plates were analyzed using a bioimaging analyzer system (see above).

[2] = Radioligand stability in vivo (metabolism in brain, plasma, urine); design: species or system CD-1 mice; settings: mice
Method: The metabolic fate of [^18F]IV was investigated in brain, plasma and urine samples of CD1-mice at 30 and 60 min p.i. Proteins were precipitated with acetonitrile and extraction efficiencies of 96.4% for brain homogenate, 90.2% for plasma and 89.4% for urine were obtained, indicating sufficient recovery rates. The supernatants of each material were analyzed by radio-TLC and analytical radio-HPLC, whereof two representative chromatograms are given in Figure 4.
A single lipophilic metabolite was detected representing only 4.2% of total radioactivity at 60 min p.i. Therefore a major impairment of the imaging properties of [^18F]IV in vivo should not be expected. The same radiometabolite was detected in plasma with 23.5% and 22.0% of the total radioactivity at 30 and 60 min p.i., while the parent radiotracer [^18F]IV accounted for 69.5% and 70.1%, respectively.
In urine the metabolic profile is distinctly different. While the non-metabolized [^18F]IV and the single plasma- and brain-related radiometabolite accounted for only ~1% of the total radioactivity in urine, further radiometabolites were detected. The main three of them represent 11%, 12% and 44% of the total radioactivity. In contrast to brain and plasma samples, in urine free [^18F]fluoride could be detected, although at a low level of only ~5% of total radioactivity.
After injection via the tail vein of ~150 MBq of [^18F]IV in […] isotonic solution, mice were sacrificed at 30 or 60 min p.i. (n = 2 per time). Urine and blood samples were obtained, and whole brains were isolated and homogenized in 50 mM TRIS-HCl, pH 7.4/4 °C, in a borosilicate glass cylinder by 10 strokes of a PTFE plunge at a speed of 1,000 rpm using a Potter S Homogenizer (B. Braun Melsungen AG, Germany). Plasma samples were obtained by centrifugation of blood at 2,000 g and 4 °C for 10 min. Extractions of brain homogenate, plasma and urine samples were done by treatment with ice-old acetonitrile (1:5 v/v; 2 min vortex mixing, Vortex-Genie 2, Scientific Industries Inc., NY, USA; 10 min incubation on ice) and centrifugation (6,000 rpm, 4 °C, 5 min; EBA 12R, Andreas Hettich GmbH & Co. KG, Tuttlingen, Germany). The supernatants were stored separately. Sediments of brain and plasma samples were re-suspended in 500 μL ice-cold acetonitrile and extraction was repeated. Supernatants of each specimen were combined and slowly evaporated at 70 °C under nitrogen stream. […]

With `COc1cc2c(N3CC[C@@H](Oc4cnc5ccccc5n4)C3)ncnc2cc1OCC[18F]` [[^18F]IV, (R)-7-(2-[^18F]Fluoroethoxy)-6-methoxy-4-(3-(quinoxalin-2-yloxy)pyrrolidin-1-yl)quinazoline] the “accumulation in PDE10A-expressing brain regions (caudate putamen, olfactory tubercle, cerebellum)” value [1] was “no target specific accumulation; also recorded: free of significant accumulation”, the “parent [18F]IV, share of total radioactivity” value (“parent [18F]IV, share” below) ([2]; brain, 30 min p.i.) was 94.3% and the “parent [18F]IV, share” value ([2]; brain, 60 min p.i.) was 93.1%. For the same compound, the “parent [18F]IV, share” value ([2]; plasma, 30 min p.i.) was 69.5% and the “parent [18F]IV, share” value ([2]; plasma, 60 min p.i.) was 70.1%.
